pIC50: −log10 of the molar value.
Tested on: PDC 899932-113-R3-J6 complex spheroid viability
Assay: Anticancer human tumor 899932-113-R3-J6-PDC patient-derived melanoma cell line growth inhibition [RAS]
Conditions: for pIC50: curve of first compound; for viability, T/C: stronger effect = lower value; active means viability on the fitted dose curve at most 10% of control; inactive means the rest
Summary of the method: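 Agents were tested in combination matrices in half-log decrements from a top concentration at or near clinical Cmax (10 microM if undetermined). Targets were multi-cell spheroids of tumour lines plus HUVEC and MSC stromal cells.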

[1] = second compound 0.000949 µM, first compound 0.0316 µM
[2] = second compound 0.000949 µM, first compound 0.1 µM
[3] = second compound 0.000949 µM, first compound 0.316 µM
[4] = second compound 0.000949 µM, first compound 1 µM
[5] = second compound 0.000949 µM, first compound 3.16 µM
[6] = second compound 0.000949 µM, first compound 10 µM
[7] = second compound 0.003 µM, first compound 0.0316 µM
[8] = second compound 0.003 µM, first compound 0.1 µM
[9] = second compound 0.003 µM, first compound 0.316 µM
[10] = second compound 0.003 µM, first compound 1 µM
[11] = second compound 0.003 µM, first compound 3.16 µM
[12] = second compound 0.003 µM, first compound 10 µM
[13] = second compound 0.00949 µM, first compound 0.0316 µM
[14] = second compound 0.00949 µM, first compound 0.1 µM
[15] = second compound 0.00949 µM, first compound 0.316 µM
[16] = second compound 0.00949 µM, first compound 1 µM
[17] = second compound 0.00949 µM, first compound 3.16 µM
[18] = second compound 0.00949 µM, first compound 10 µM
[19] = second compound 0.03 µM, first compound 0.0316 µM
[20] = second compound 0.03 µM, first compound 0.1 µM
[21] = second compound 0.03 µM, first compound 0.316 µM
[22] = second compound 0.03 µM, first compound 1 µM
[23] = second compound 0.03 µM, first compound 3.16 µM
[24] = second compound 0.03 µM, first compound 10 µM
[25] = second compound 0.0949 µM, first compound 0.0316 µM
[26] = second compound 0.0949 µM, first compound 0.1 µM
[27] = second compound 0.0949 µM, first compound 0.316 µM
[28] = second compound 0.0949 µM, first compound 1 µM
[29] = second compound 0.0949 µM, first compound 3.16 µM
[30] = second compound 0.0949 µM, first compound 10 µM
[31] = second compound 0.3 µM, first compound 0.0316 µM
[32] = second compound 0.3 µM, first compound 0.1 µM
[33] = second compound 0.3 µM, first compound 0.316 µM
[34] = second compound 0.3 µM, first compound 1 µM
[35] = second compound 0.3 µM, first compound 3.16 µM
[36] = second compound 0.3 µM, first compound 10 µM
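Wherever viability, T/C is given: spheroids exposed to agents for seven days before readout; 100% = DMSO vehicle control wells.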

CC(=O)OC12COC1CC(O)C1(C)C(=O)C(O)C3=C(C)C(OC(=O)C(O)C(NC(=O)OC(C)(C)C)c4ccccc4)CC(O)(C(OC(=O)c4ccccc4)C21)C3(C)C (centres undefined) + CCn1c(-c2cccnc2C(C)OC)c2c3cc(ccc31)N1CCOC(CC(NC(=O)C(C(C)C)N(C)C(=O)C3(F)CCN(C(=O)C#CC(C)(C)N(C)C)CC3)C(=O)N3CCCC(N3)C(=O)OCC(C)(C)C2)C1
> 7.50: pIC50 (second compound 0.000949 µM) | pIC50 (second compound 0.003 µM) | pIC50 (second compound 0.00949 µM) | pIC50 (second compound 0.03 µM) | pIC50 (second compound 0.0949 µM) | pIC50 (second compound 0.3 µM)
inactive: viability, T/C [1] 31.4% | viability, T/C [2] 34.3% | viability, T/C [3] 33% | viability, T/C [4] 45.6% | viability, T/C [5] 60.8% | viability, T/C [6] 70.1% | viability, T/C [7] 29.2% | viability, T/C [8] 37.1% | viability, T/C [9] 36.8% | viability, T/C [10] 39.7% | viability, T/C [11] 58.7% | viability, T/C [12] 68.9% | viability, T/C [13] 33.8% | viability, T/C [14] 36.6% | viability, T/C [15] 35.1% | viability, T/C [16] 48.4% | viability, T/C [17] 61% | viability, T/C [18] 61% | viability, T/C [19] 34.9% | viability, T/C [20] 38% | viability, T/C [21] 32.9% | viability, T/C [22] 41.7% | viability, T/C [23] 67.3% | viability, T/C [24] 67.4% | viability, T/C [25] 34.8% | viability, T/C [26] 38.4% | viability, T/C [27] 37.3% | viability, T/C [28] 52.1% | viability, T/C [29] 59.2% | viability, T/C [30] 65.5% | viability, T/C [31] 28.9% | viability, T/C [32] 39.4% | viability, T/C [33] 40.8% | viability, T/C [34] 44.5% | viability, T/C [35] 64.3% | viability, T/C [36] 63.1%

CCC(CC)c1cc(NC2CCC(N)C2)n2nccc2n1 (centres undefined) + CCn1c(-c2cccnc2C(C)OC)c2c3cc(ccc31)N1CCOC(CC(NC(=O)C(C(C)C)N(C)C(=O)C3(F)CCN(C(=O)C#CC(C)(C)N(C)C)CC3)C(=O)N3CCCC(N3)C(=O)OCC(C)(C)C2)C1
5.80: pIC50 (second compound 0.003 µM)
inactive: viability, T/C [1] 104% | viability, T/C [2] 86.7% | viability, T/C [3] 94.8% | viability, T/C [4] 73.8% | viability, T/C [7] 95.8% | viability, T/C [8] 85.5% | viability, T/C [9] 90.9% | viability, T/C [10] 81.7% | viability, T/C [13] 94.7% | viability, T/C [14] 82.3% | viability, T/C [15] 87.1% | viability, T/C [16] 76.7% | viability, T/C [19] 86.7% | viability, T/C [20] 77.1% | viability, T/C [21] 85.3% | viability, T/C [22] 75.9% | viability, T/C [25] 80.2% | viability, T/C [26] 83.4% | viability, T/C [27] 87.5% | viability, T/C [28] 64.8% | viability, T/C [31] 79.8% | viability, T/C [32] 73.5% | viability, T/C [33] 77.9% | viability, T/C [34] 60%
5.83: pIC50 (second compound 0.03 µM)
active: viability, T/C [5] 1.84% | viability, T/C [6] 0.94% | viability, T/C [11] 1.51% | viability, T/C [12] 1.01% | viability, T/C [17] 1.18% | viability, T/C [18] 0.88% | viability, T/C [23] 1.56% | viability, T/C [24] 0.52% | viability, T/C [29] 1.71% | viability, T/C [30] 0.88% | viability, T/C [35] 1.44% | viability, T/C [36] 0.36%
5.82: pIC50 (second compound 0.00949 µM)
5.91: pIC50 (second compound 0.3 µM)
5.88: pIC50 (second compound 0.0949 µM)
5.84: pIC50 (second compound 0.000949 µM)

Reference: PubChem BioAssay AID2060895 (Molecular Pharmacology Branch, DTP, NCI, 2025)
